The values that follow come from ChEMBL document CHEMBL5584270, “Synthesis and Evaluation of 1,3-Disubstituted Imidazolidine-2,4,5-triones as Inhibitors of Pyruvate Carboxylase” (ACS Med Chem Lett, 2024).

Broadly, the IC50 is the concentration at which inhibition is half-maximal. Broadly, the Ki is a measure of affinity in units of concentration, obtained from inhibition or displacement.

For experiment [1], the target named is T1, Pyruvate carboxylase (Staphylococcus aureus (strain Mu50 / ATCC 700699), UniProt A0A0H3JRU9).
T1 sequence (A0A0H3JRU9 whole entry): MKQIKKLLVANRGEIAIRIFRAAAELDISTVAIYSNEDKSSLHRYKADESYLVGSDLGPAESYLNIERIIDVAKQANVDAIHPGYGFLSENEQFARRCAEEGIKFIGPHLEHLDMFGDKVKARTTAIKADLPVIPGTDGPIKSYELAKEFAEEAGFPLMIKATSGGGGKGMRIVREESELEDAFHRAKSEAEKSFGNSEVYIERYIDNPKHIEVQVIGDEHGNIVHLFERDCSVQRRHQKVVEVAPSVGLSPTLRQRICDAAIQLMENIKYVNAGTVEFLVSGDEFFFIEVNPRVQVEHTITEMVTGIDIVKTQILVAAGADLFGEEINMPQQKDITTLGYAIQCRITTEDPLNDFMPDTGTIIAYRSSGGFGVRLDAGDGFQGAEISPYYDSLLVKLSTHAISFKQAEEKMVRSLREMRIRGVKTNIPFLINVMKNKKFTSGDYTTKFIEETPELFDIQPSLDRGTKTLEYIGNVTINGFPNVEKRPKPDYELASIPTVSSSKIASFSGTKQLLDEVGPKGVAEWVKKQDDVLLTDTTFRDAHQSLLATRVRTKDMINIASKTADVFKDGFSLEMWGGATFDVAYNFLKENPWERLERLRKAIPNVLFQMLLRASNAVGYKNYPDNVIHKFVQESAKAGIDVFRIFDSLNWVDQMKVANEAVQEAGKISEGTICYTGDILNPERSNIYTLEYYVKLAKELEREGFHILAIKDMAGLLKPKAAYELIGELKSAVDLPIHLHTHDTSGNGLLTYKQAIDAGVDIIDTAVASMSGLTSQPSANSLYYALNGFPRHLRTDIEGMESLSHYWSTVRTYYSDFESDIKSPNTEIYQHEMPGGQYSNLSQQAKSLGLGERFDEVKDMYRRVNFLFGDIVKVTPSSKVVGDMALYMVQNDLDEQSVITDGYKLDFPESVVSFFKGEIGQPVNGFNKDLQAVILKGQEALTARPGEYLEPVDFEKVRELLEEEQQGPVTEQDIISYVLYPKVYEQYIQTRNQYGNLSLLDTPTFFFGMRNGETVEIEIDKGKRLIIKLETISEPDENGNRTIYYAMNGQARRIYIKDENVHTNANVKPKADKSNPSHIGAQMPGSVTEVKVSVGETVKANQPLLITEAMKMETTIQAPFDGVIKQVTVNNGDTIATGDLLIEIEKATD
Kind of experiment: Inhibition of Staphylococcus aureus Pyruvate carboxylase using pyruvate, HCO3-, ATP and NADH as substrate assessed as oxaloacetate formation by measuring NADH oxidation by spectrophotometry based malate dehydrogenase coupled enzyme assay.

Another experiment is filed under the species Homo sapiens. Briefly: Inhibition of MDH (unknown origin).
Experiment [2] has as its target Carbonic anhydrase 2 (Homo sapiens) (UniProt P00918). Briefly: Inhibition of human CA2 at 200 uM.
The target in experiment [3] is Macrophage metalloelastase (Homo sapiens) (UniProt P39900). Briefly: Inhibition of MMP-12 (unknown origin) at 50 uM.
Another experiment deals with Pseudomonas syringae. Briefly: Inhibition of Pseudomonas syringae guanidine carboxylase using urea as substrate at 200 uM by coupled enzyme assay.
Experiment [4] has as its target T1, Pyruvate carboxylase. Briefly: Non-competitive inhibition of Staphylococcus aureus pyruvate carboxylase assessed as inhibition constant pretreated with ATP followed by pyruvate, HCO3- and NADH addition by steady state kinetic analysis.
Experiment [5] addresses T1, Pyruvate carboxylase. Briefly: Mixed type inhibition of Staphylococcus aureus pyruvate carboxylase assessed as inhibition constant pretreated with pyruvate followed by ATP, HCO3- and NADH addition by steady state kinetic analysis.
Experiment [6] has as its target T1, Pyruvate carboxylase. Kind of experiment: Mixed type inhibition of Staphylococcus aureus pyruvate carboxylase assessed as inhibition constant pretreated with ATP followed by pyruvate, HCO3- and NADH addition by steady state kinetic analysis.
Experiment [7] has as its target T1, Pyruvate carboxylase. Briefly: Inhibition of Staphylococcus aureus pyruvate carboxylase by FVB based high-throughput fixed time assay.

Molecules are shown by their SMILES. Calls of active or inactive are those of the source. The rule behind the calls is not given here.

Sequence of Macrophage metalloelastase (Homo sapiens) (P39900 106-470 limits assumed): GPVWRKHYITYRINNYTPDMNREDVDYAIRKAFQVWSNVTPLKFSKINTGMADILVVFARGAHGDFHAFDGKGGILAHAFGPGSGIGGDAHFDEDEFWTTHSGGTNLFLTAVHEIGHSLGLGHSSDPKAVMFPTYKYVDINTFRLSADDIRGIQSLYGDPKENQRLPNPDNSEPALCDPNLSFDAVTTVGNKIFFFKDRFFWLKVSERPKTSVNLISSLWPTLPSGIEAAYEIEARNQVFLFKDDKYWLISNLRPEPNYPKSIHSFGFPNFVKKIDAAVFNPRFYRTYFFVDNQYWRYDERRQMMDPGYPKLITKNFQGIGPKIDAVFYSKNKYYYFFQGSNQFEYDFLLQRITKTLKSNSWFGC

Regarding `CCOC(=O)CN1C(=O)C(=O)N(c2ccc(F)cc2)C1=O`, the half-inhibitory concentration (IC50) on Pyruvate carboxylase [1] worked out at 3.4 µM. For the same compound, the inhibition result (in the experiment listed under Homo sapiens; in [2]; in experiment [3]; in the experiment on Pseudomonas syringae) was “inactive” each time.
In the case of `CCOC(=O)CN1C(=O)C(=O)N(CC(=O)OCC)C1=O`, on Pyruvate carboxylase [1], the half-inhibitory concentration (IC50) was found to be 9 µM. In the experiment listed under Homo sapiens, the inhibition entry was “inactive”.
Turning to `O=C1C(=O)N(c2ccccc2)C(=O)N1CCc1ccccc1`, the IC50 at Pyruvate carboxylase [1] was 370 µM. Also, in the experiment listed under Homo sapiens, the inhibition entry was “inactive”.
In the case of `O=C1C(=O)N(c2ccc(Br)cc2)C(=O)N1Cc1ccccc1`, the IC50 at Pyruvate carboxylase [1] amounted to 290 µM. In the experiment listed under Homo sapiens, the inhibition entry is “inactive”.
Regarding `CCCOC(=O)CN1C(=O)C(=O)N(c2ccccc2)C1=O`, the IC50 on Pyruvate carboxylase [1] is 5 µM. Also, the inhibition entry (in the experiment filed under Homo sapiens; in experiment [2]; in [3]; in the experiment on Pseudomonas syringae) was “inactive” each time.
As to `O=C1C(=O)N(C2CCCc3ccccc32)C(=O)N1c1ccccc1` (configuration not stated), the concentration for half-maximal inhibition (IC50) at Pyruvate carboxylase [1] was determined as 59 µM. For the same compound, the inhibition entry in the experiment listed under Homo sapiens was “inactive”.
Consider `O=C(O)CN1C(=O)C(=O)N(Cc2ccccc2)C1=O`, for which the half-maximal inhibitory concentration (IC50) on Pyruvate carboxylase [1] is 30 µM. Moreover, the inhibition result (in the experiment listed under Homo sapiens; in [2]; in [3]; in the experiment on Pseudomonas syringae) was “inactive” throughout. Further, the Ki on Pyruvate carboxylase [4] is 140 µM; on Pyruvate carboxylase [5], 9 µM.
As to `CCOC(=O)CN1C(=O)C(=O)N(Cc2ccccc2)C1=O`, the IC50 at Pyruvate carboxylase [1] is 7.3 µM. Further, the inhibition result (in the experiment filed under Homo sapiens; in [2]; in [3]; with Pseudomonas syringae) was “inactive” in each case. Also, the Ki stood at 7 µM at Pyruvate carboxylase [6] and 0.58 µM at Pyruvate carboxylase [5].
Turning to `COC(=O)CCN1C(=O)C(=O)N(Cc2ccccc2)C1=O`, the half-inhibitory concentration (IC50) on Pyruvate carboxylase [1] amounted to 68 µM. Besides, in the experiment filed under Homo sapiens, the inhibition result was “inactive”.
For the compound `CCOC(=O)CCN1C(=O)C(=O)N(c2ccc(F)cc2)C1=O`, the half-maximal inhibitory concentration (IC50) at Pyruvate carboxylase [1] was found to be 29 µM. For the same compound, the inhibition result (in the experiment listed under Homo sapiens; in [2]; in [3]; in the experiment on Pseudomonas syringae) was “inactive” throughout.
Turning to `CCOC(=O)CN1C(=O)C(=O)N(CCc2ccccc2)C1=O`, the IC50 on Pyruvate carboxylase [1] worked out at 9.3 µM. Besides, the inhibition entry (in the experiment listed under Homo sapiens; in experiment [2]; in [3]; in the experiment with Pseudomonas syringae) was “inactive” in each case.
As for `COc1ccc(N2C(=O)C(=O)N(Cc3ccccc3)C2=O)cc1`, the IC50 at Pyruvate carboxylase [1] is 17 µM. Moreover, the inhibition entry (in the experiment filed under Homo sapiens; in [2]; in experiment [3]; with Pseudomonas syringae) was “inactive” in each case.
For `CC(c1ccccc1)N1C(=O)C(=O)N(c2ccccc2)C1=O` (configuration not stated), the concentration for half-maximal inhibition (IC50) at Pyruvate carboxylase [1] worked out at 35 µM. Also, the inhibition result in the experiment filed under Homo sapiens was “inactive”.
Turning to `CCOC(=O)CN1C(=O)C(=O)N(c2ccccc2)C1=O`, the IC50 at Pyruvate carboxylase [1] came to 5.1 µM. Also, the inhibition result (in the experiment filed under Homo sapiens; in experiment [2]; in experiment [3]; with Pseudomonas syringae) was “inactive” throughout.
Consider `CN1C(=O)C(=O)N(CC(=O)c2cccs2)C1=O`, for which the 50% inhibitory concentration (IC50) on Pyruvate carboxylase [7] turned out to be 35 µM; on Pyruvate carboxylase [1], 45 µM. The inhibition entry (in the experiment filed under Homo sapiens; in [2]; in experiment [3]; with Pseudomonas syringae) was “inactive” each time. Further, the results for the Ki at Pyruvate carboxylase [4] and at Pyruvate carboxylase [5] were 38 µM and 5.2 µM, respectively.
Consider `O=C1C(=O)N(c2ccccc2)C(=O)N1CCc1cccs1`, for which the IC50 at Pyruvate carboxylase [1] was determined as 92 µM. In the experiment listed under Homo sapiens, the inhibition entry is “inactive”.
`O=C1C(=O)N(c2ccccc2)C(=O)N1Cc1ccccc1`: at Pyruvate carboxylase [1], the IC50 is 64 µM. Also, the inhibition result (in the experiment filed under Homo sapiens; in [2]; in experiment [3]; in the experiment on Pseudomonas syringae) was “inactive” each time. For the same compound, the inhibition constant (Ki) at Pyruvate carboxylase [4] was found to be 150 µM; on Pyruvate carboxylase [5], 24 µM.
For the compound `CCOC(=O)CN1C(=O)C(=O)N(Cc2ccco2)C1=O`, the half-maximal inhibitory concentration (IC50) on Pyruvate carboxylase [1] amounted to 12 µM. For the same compound, the inhibition result (in the experiment filed under Homo sapiens; in [2]; in [3]; with Pseudomonas syringae) was “inactive” in each case.
Consider `CCOC(=O)CN1C(=O)C(=O)N(CCc2cccs2)C1=O`, for which the concentration for half-maximal inhibition (IC50) at Pyruvate carboxylase [1] came out at 7.9 µM. The inhibition result (in the experiment filed under Homo sapiens; in [2]; in [3]; in the experiment with Pseudomonas syringae) was “inactive” each time.
Consider `COC(=O)CN1C(=O)C(=O)N(c2ccccc2)C1=O`, for which the concentration for half-maximal inhibition (IC50) at Pyruvate carboxylase [1] was 3.5 µM. Further, in the experiment filed under Homo sapiens, the inhibition entry was “inactive”.
Consider `CCOC(=O)CN1C(=O)C(=O)N(Cc2cccs2)C1=O`, for which the half-maximal inhibitory concentration (IC50) at Pyruvate carboxylase [1] turned out to be 5.2 µM. Moreover, the inhibition entry (in the experiment listed under Homo sapiens; in experiment [2]; in experiment [3]; with Pseudomonas syringae) was “inactive” in each case. Besides, the Ki came to 14 µM at Pyruvate carboxylase [4] and 1.8 µM on Pyruvate carboxylase [5].
